Patent US20100068197A1, “PHARMACEUTICAL COMPOUNDS AS INHIBITORS OF CELL PROLIFERATION AND THE USE THEREOF” (Myriad Pharmaceuticals, Inc., priority 2008, published 2010)

Assays:
[1] = test system: P388/ADR cell lines (overexpress the multidrug resistance pump MDR-1); assay: Multidrug resistant cell assay, cell viability by ATP-lite; format: cell-based, murine; conditions: Mus musculus, 72 h, multidrug resistant cells overexpressing MDR-1
Text: Cytotoxicity of compounds in multidrug resistant cells can be determined by administering compounds to cell lines that overexpress the multidrug resistance pump MDR-1 and determining the viability of the cell lines. P388/ADR cell lines are known to overexpress the multidrug resistance pump MDR-1 (also known as P-glycoprotein-1; Pgp-1).
P388/ADR cell lines are obtained from American Type Culture Collection (Manassas, Va.) and maintained in RPMI-1640 media supplemented with 10% FCS, 10 units/mL penicillin and streptomycin, 2 mM Glutamax and 1 mM sodium pyruvate (Invitrogen Corporation, Carlsbad, Calif.). For compound testing, cells are plated in 96 well dishes at a concentration of 1.5×10^4 cells/well. Cells are allowed to adhere to the plate overnight and then incubated with compounds at final concentrations ranging from 0.13 nM to 10 μM for 72 hours. Cell viability is then assessed using the ATP-lite reagent (Perkin Elmer, Foster City, Calif.). Plates are read on a Wallac Topcount luminescence reader (Perkin Elmer, Foster City, Calif.) and the results graphed in Prism software (Graphpad Software, Inc., San Diego, Calif.). Non-linear regression with variable slope analysis is performed to obtain IC50 concentration values.

[2] = test system: P388 murine leukemia cell line; assay: P388 cytotoxicity, cellular viability by ATP-Lite; format: cell-based; conditions: compound concentration required to inhibit growth by 50%, intracellular ATP
Protocol: A P388 murine leukemia cell line was obtained from NCI, Frederick, Md. P388 cells were cultured in RPMI-1640 supplemented with 10% fetal bovine serum, 2 mM Glutamax, 1 mM sodium pyruvate, 0.1 mM non-essential amino acids and 10 mM HEPES. Cells were grown at 37° C. in a humidified 5% CO2 atmosphere. Exponentially growing P388 cells were plated at 5,000 cells/well in a 96-well flat-bottomed microtiter plate (Corning, Costar #3595). […] Cellular viability was determined 72 hours later by measuring intracellular ATP with ATP-Lite assay system. The effect of compounds on cell viability was calculated by comparing the ATP levels of cells exposed to test compound with those of cells exposed to DMSO. A semi-log plot of relative ATP levels versus compound concentration was used to calculate the compound concentration required to inhibit growth by 50% (IC50). Data was analyzed by Prism software (GraphPad; San Diego, Calif.) by fitting it to a sigmoidal dose response curve.

| SMILES | IC50 [1] [nM] | IC50 ([2]; Mus musculus, P388, 72 h) [nM] | IC50 ([2]; 72 hours) [nM] |
| --- | --- | --- | --- |
| COc1ccc(N(C)c2nc(NCCNC(=O)OCc3ccccc3)nc3ccc(OC)cc23)cc1 [Example 17, (2-{6-Methoxy-4-[(4-methoxy-phenyl)-methyl-amino]-quinazolin-2-ylamino}-ethyl)-carbamic acid benzyl ester] | 8500 | 4500 | 3000 |
| COc1ccc(N(C)c2nc(CNC(=O)OCc3ccccc3)nc3ccccc23)cc1 [Example 47, {4-[(4-Methoxy-phenyl)-methyl-amino]-quinazolin-2-ylmethyl}-carbamic acid benzyl ester] | 27 | 23 |  |
| COc1ccc(N(C)c2nc(NCCNC(=O)CN)nc3ccccc23)cc1 [Example 41, 2-Amino-N-(2-{4-[(4-methoxy-phenyl)-methyl-amino]-quinazolin-2-ylamino}-ethyl)-acetamide] | 5300 | 1700 |  |
| COc1ccc(N(C)c2nc(NCCOC(=O)[C@@H](N)CCSC)nc3ccccc23)cc1 [Example 27, (S)-2-Amino-4-methylsulfanyl-butyric acid 2-{4-[(4-methoxy-phenyl)-methyl-amino]-quinazolin-2-ylamino}-ethyl ester] | 220 | 220 |  |
| COC(=O)[C@H](Cc1ccc(O)cc1)Nc1nc(N(C)c2ccc(OC)cc2)c2ccccc2n1 [Example 34, (S)-3-(4-Hydroxy-phenyl)-2-{4-[(4-methoxy-phenyl)-methyl-amino]-quinazolin-2-ylamino}-propionic acid methyl ester] | 43 | 36 |  |
| COc1ccc(N(C)c2nc(NCC(O)CN)nc3ccccc23)cc1 (centres unmarked) [Example 44, 1-Amino-3-{4-[(4-methoxy-phenyl)-methyl-amino]-quinazolin-2-ylamino}-propan-2-ol] | 57 | 37 |  |
| CCOC(=O)C1C=CC(C)n2c(=O)n(CCNc3nc(N(C)c4ccc(OC)cc4)c4ccccc4n3)c(=O)n21 (centres unmarked) [Example 6, 2-(2-{4-[(4-Methoxy-phenyl)-methyl-amino]-quinazolin-2-ylamino}-ethyl)-8-methyl-1,3-dioxo-2,3,5,8-tetrahydro-1H-[1,2,4]triazolo[1,2-a]pyridazine-5-carboxylic acid ethyl ester] | 3500 | 3000 |  |
| COc1ccc(N(C)c2nc(CNC(=O)[C@H](CC(N)=O)NC(=O)OC(C)(C)C)nc3ccccc23)cc1 [Example 51, [(S)-2-Carbamoyl-1-({4-[(4-methoxy-phenyl)-methyl-amino]-quinazolin-2-ylmethyl}-carbamoyl)-ethyl]-carbamic acid tent-butyl ester] | 970 | 620 |  |
| COCCOCCOC(=O)OCCNc1nc(N(C)c2ccc(OC)cc2)c2ccccc2n1 [Example 8, Carbonic acid 2-(2-methoxy-ethoxy)-ethyl ester 2-{4-[(4-methoxy-phenyl)-methyl-amino]-quinazolin-2-ylamino}-ethyl ester] | 30 | 25 |  |
| COc1ccc(N(C)c2nc(NCCOC(=O)[C@H](Cc3c[nH]c4ccccc34)NC(=O)OCc3ccccc3)nc3ccccc23)cc1 [Example 29, (S)-2-Benzyloxycarbonylamino-3-(1H-indol-3-yl)-propionic acid 2-{4-[(4-methoxy-phenyl)-methyl-amino]-quinazolin-2-ylamino}-ethyl ester] | 40 | 32 |  |
| COc1ccc(N(C)c2nc(NCCOCCOCCN)nc3ccccc23)cc1 [Example 3, N^2-{2-[2-(2-Amino-ethoxy)-ethoxy]-ethyl}-N^4-(4-methoxy-phenyl)-N^4-methyl-quinazoline-2,4-diamine] | 2000 | 1400 |  |
| COc1ccc(N(C)c2nc(NCCNC(N)=O)nc3ccccc23)cc1 [Example 40, (2-{4-[(4-Methoxy-phenyl)-methyl-amino]-quinazolin-2-ylamino}-ethyl)-urea] | 600 | 500 |  |
| CCOC(=O)C(Nc1nc(N(C)c2ccc(OC)cc2)c2ccccc2n1)C(C)C (centres unmarked) [Example 32, 2-{4-[(4-Methoxy-phenyl)-methyl-amino]-quinazolin-2-ylamino}-3-methyl-butyric acid ethyl ester] | 300 | 240 |  |
| COc1ccc(N(C)c2nc(CNS(=O)(=O)c3ccc(OC)cc3)nc3ccccc23)cc1 [Example 45, 4-Methoxy-N-{4-[(4-methoxy-phenyl)-methyl-amino]-quinazolin-2-ylmethyl}-benzenesulfonamide] | 1800 | 1700 |  |
| COc1ccc(N(C)c2nc(CNC(=O)OC(COC(C)=O)COC(C)=O)nc3ccccc23)cc1 [Example 55, Acetic acid 3-acetoxy-2-{4-[(4-methoxy-phenyl)-methyl-amino]-quinazolin-2-ylmethylcarbamoyloxy}-propyl ester] | 450 | 330 |  |
| CNC(=O)NCCNc1nc(N(C)c2ccc(OC)cc2)c2cc(OC)ccc2n1 [Example 37, 1-(2-{6-Methoxy-4-[(4-methoxy-phenyl)-methyl-amino]-quinazolin-2-ylamino}-ethyl)-3-methyl-urea] | 6600 | 4700 |  |
| COc1ccc(N(C)c2nc(NCCOP(=O)(O)OC(C)(C)C)nc3ccccc23)cc1 [Example 12, Phosphoric acid tent-butyl ester 2-{4-[(4-methoxy-phenyl)-methyl-amino]-quinazolin-2-ylamino}-ethyl ester] | 7800 | 3100 |  |
| COCCOCCOCCOc1nc(N(C)c2ccc(OC)cc2)c2ccccc2n1 [Example 2, (2-{2-[2-(2-Methoxy-ethoxy)-ethoxy]-ethoxy}-quinazolin-4-yl)-(4-methoxy-phenyl)-methyl-amine] | 74 | 65 |  |
| COc1ccc(N(C)c2nc(NCCCN(C)c3nc(N(C)c4ccc(OC)cc4)c4ccccc4n3)nc3ccccc23)cc1 [Example 48, 3-{4-[(4-Methoxy-phenyl)-methyl-amino]-quinazolin-2-ylamino}-1-({4-[(4-methoxy-phenyl)-methyl-amino]-quinazolin-2-yl}-methyl-amino)-propane] | 83 | 70 |  |
| COc1ccc(N(C)c2nc(NCCNCCNCCN)nc3ccccc23)cc1 [Example 4, N^2-{2-[2-(2-Amino-ethylamino)-ethylamino]-ethyl}-N^4-(4-methoxy-phenyl)-N^4-methyl-quinazoline-2,4-diamine] | 530 | 550 |  |
| COc1ccc(N(C)c2nc(CNC(=O)[C@@H](C)NC(=O)OC(C)(C)C)nc3ccccc23)cc1 [Example 53, [(R)-1-({4-[(4-Methoxy-phenyl)-methyl-amino]-quinazolin-2-ylmethyl}-carbamoyl)-ethyl]-carbamic acid tert-butyl ester] | 680 | 457 |  |
| COC(=O)NCCNc1nc(N(C)c2ccc(OC)cc2)c2ccccc2n1 [Example 38, (2-{4-[(4-Methoxy-phenyl)-methyl-amino]-quinazolin-2-ylamino}-ethyl)-carbamic acid methyl ester] | 53 | 19 |  |
| COc1ccc(N(C)c2nc(NCCOC(=O)CN)nc3ccccc23)cc1 [Example 13, Amino-acetic acid 2-{4-[(4-methoxy-phenyl)-methyl-amino]-quinazolin-2-ylamino}-ethyl ester] | 18 | 15 |  |
